Experimental data: patent publication US7807703B2, “Substituted aryl ketones” (Bayer CropScience AG, priority 2002, dated 2010)

System: not listed separately
Experiment: log P determination by reversed-phase HPLC (EEC Directive 79/831 Annex V.A8; acidic or neutral mobile phase)
Assay type: physicochemical
Conditions: HPLC reversed-phase C18, 43° C.; acidic range: 0.1% aqueous phosphoric acid, acetonitrile gradient (marked a))
Outline: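 Reversed-phase C18 HPLC per EEC Directive 79/831 Annex V.A8 at 43° C. Linear gradient of 10% to 90% acetonitrile, run against 0.1% aqueous phosphoric acid for the acidic range (a) or 0.01 molar aqueous phosphate buffer for the neutral range (b).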
For `CCS(=O)(=O)NCCOc1c(Cl)ccc(C(=O)C2C(=O)CCCC2=O)c1Cl` [Example 4], the logP was “logP = 2.36^a)”. For `CCn1ncc(C(=O)c2ccc(Cl)c(OCCNS(C)(=O)=O)c2Cl)c1O` [Example 6], the logP was “logP = 1.65^a)”. With `CCn1ncc(C(=O)c2ccc(Cl)c(OCCNS(=O)(=O)c3ccc(C)cc3)c2Cl)c1O` [Example 3] the logP was “(I-2) logP = 2.74^a)”. In the case of `CS(=O)(=O)NCCOc1c(Cl)ccc(C(=O)C2C(=O)CCCC2=O)c1Cl` [Example 5], the logP is reported as “logP = 2.16^a)”.

Same assay, conditions: reversed-phase C18 HPLC column; HPLC reversed-phase C18, 43° C.; acidic range: 0.1% aqueous phosphoric acid, acetonitrile gradient (marked a)); read-out: logP
For `CCn1ncc(C(=O)c2ccc(Cl)c(OCCNS(=O)(=O)CC)c2Cl)c1O` [Example 2, 4-[2,4-dichloro-3-(N-ethylsulphonylaminoethoxy)benzoyl]-1-ethyl-5-hydroxypyrazole], the chromatographic logP was 1.86.

System: weeds
Experiment: Post-emergence test (Example B), herbicidal activity
Assay type: in vivo
Conditions: test plants of 5-15 cm sprayed, rated after three weeks
Procedure: (§1) • Solvent: 5 parts by weight of acetone • Emulsifier: 1 part by weight of alkylaryl polyglycol ether
(§2) To produce a suitable preparation of active compound, 1 part by weight of active compound is mixed with the stated amount of solvent, the stated amount of emulsifier is added and the concentrate is diluted with water to the desired concentration.
Test plants of a height of 5-15 cm are sprayed with the preparation of active compound such that the particular amounts of active compound desired are applied per unit area. The concentration of the spray liquor is chosen such that the particular amounts of active compound desired are applied in 1000 l of water/ha.
After three weeks, the degree of damage to the plants is rated in % damage in comparison to the development of the untreated control.
The figures denote: • 0%=no effect (like untreated control) • 100%=total destruction
In the case of `CCS(=O)(=O)NCCOc1c(Cl)ccc(C(=O)C2C(=O)CCCC2=O)c1Cl` [Example 4], the “activity against weeds (degree of damage)” value (“activity against weeds” below) is reported as “strong activity”. For `CCn1ncc(C(=O)c2ccc(Cl)c(OCCNS(=O)(=O)CC)c2Cl)c1O` [Example 2, 4-[2,4-dichloro-3-(N-ethylsulphonylaminoethoxy)benzoyl]-1-ethyl-5-hydroxypyrazole], the “activity against weeds” value was “strong activity”. In the case of `CCn1ncc(C(=O)c2ccc(Cl)c(OCCNS(=O)(=O)c3ccc(C)cc3)c2Cl)c1O` [Example 3], the “activity against weeds” value is reported as “strong activity”. With `CS(=O)(=O)NCCOc1c(Cl)ccc(C(=O)C2C(=O)CCCC2=O)c1Cl` [Example 5] the “activity against weeds” value was “strong activity”.

System: weeds
Experiment: Pre-emergence test (Example A), herbicidal activity
Assay type: in vivo
Conditions: soil sprayed 24 hours after sowing, rated after three weeks
Procedure: as §1, §2
Seeds of the test plants are sown in normal soil. After 24 hours, the soil is sprayed with the preparation of active compound such that the particular amount of active compound desired is applied per unit area. The concentration of active compound in the spray liquor is chosen such that the particular amount of active compound desired is applied in 1000 liters of water per hectare.
After three weeks, the degree of damage to the plants is rated in % damage in comparison to the development of the untreated control. The figures denote: • 0%=no effect (like untreated control) • 100%=total destruction
In the case of `CCS(=O)(=O)NCCOc1c(Cl)ccc(C(=O)C2C(=O)CCCC2=O)c1Cl` [Example 4], the “activity against weeds” value is reported as “strong activity”. With `CCn1ncc(C(=O)c2ccc(Cl)c(OCCNS(C)(=O)=O)c2Cl)c1O` [Example 6] the “activity against weeds” value was “strong activity”. With `CCn1ncc(C(=O)c2ccc(Cl)c(OCCNS(=O)(=O)CC)c2Cl)c1O` [Example 2, 4-[2,4-dichloro-3-(N-ethylsulphonylaminoethoxy)benzoyl]-1-ethyl-5-hydroxypyrazole] the “activity against weeds” value was “strong activity”. In the case of `CS(=O)(=O)NCCOc1c(Cl)ccc(C(=O)C2C(=O)CCCC2=O)c1Cl` [Example 5], the “activity against weeds” value is reported as “strong activity”.
